{
  "source": "PubChem BioAssay (NCI)",
  "experiment_in_all_cases": "DTP human tumour cell line panel, 48 h",
  "key": {"LOX IMVI melanoma": {"tested_on": "LOX IMVI melanoma"}, "UO-31 renal": {"tested_on": "UO-31 renal"}, "CAKI-1 renal": {"tested_on": "CAKI-1 renal"}, "MCF7 breast": {"tested_on": "MCF7 breast"}, "SK-MEL-5 melanoma": {"tested_on": "SK-MEL-5 melanoma"}, "RXF 393 renal": {"tested_on": "RXF 393 renal"}, "SW-620 colon": {"tested_on": "SW-620 colon"}, "HCT-116 colon": {"tested_on": "HCT-116 colon"}, "MALME-3M melanoma": {"tested_on": "MALME-3M melanoma"}, "BT-549 breast": {"tested_on": "BT-549 breast"}, "786-0 renal": {"tested_on": "786-0 renal"}, "UACC-62 melanoma": {"tested_on": "UACC-62 melanoma"}, "SNB-75 CNS": {"tested_on": "SNB-75 CNS"}, "M14 melanoma": {"tested_on": "M14 melanoma"}, "HCC-2998 colon": {"tested_on": "HCC-2998 colon"}, "HL-60(TB) leukemia": {"tested_on": "HL-60(TB) leukemia"}, "A498 renal": {"tested_on": "A498 renal"}, "SK-MEL-28 melanoma": {"tested_on": "SK-MEL-28 melanoma"}, "SN12C renal": {"tested_on": "SN12C renal"}, "NCI-H23 lung": {"tested_on": "NCI-H23 lung"}, "ACHN renal": {"tested_on": "ACHN renal"}, "HCT-15 colon": {"tested_on": "HCT-15 colon"}, "U251 CNS": {"tested_on": "U251 CNS"}, "IGROV1 ovarian": {"tested_on": "IGROV1 ovarian"}, "SF-539 CNS": {"tested_on": "SF-539 CNS"}, "OVCAR-4 ovarian": {"tested_on": "OVCAR-4 ovarian"}},
  "note": "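48-hour exposure; five concentrations; linearly interpolated endpoints. GI50 marks 50% less growth. TGI marks complete inhibition of growth.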",
  "data": [
    {"smiles": "O=c1oc2c(cc1-c1ccccc1)C(O)Oc1ccccc1-2", "note": "(configuration not stated)", "values": [
      {"measurement": "GI50", "setting": "LOX IMVI melanoma", "value": 13, "unit": "µM"},
      {"measurement": "TGI", "setting": "LOX IMVI melanoma", "value": "> 100", "unit": "µM"},
      {"measurement": "GI50", "setting": "UO-31 renal", "value": 11.5, "unit": "µM"},
      {"measurement": "TGI", "setting": "UO-31 renal", "value": 52.3, "unit": "µM"},
      {"measurement": "GI50", "setting": "CAKI-1 renal", "value": 5.09, "unit": "µM"},
      {"measurement": "TGI", "setting": "CAKI-1 renal", "value": "> 100", "unit": "µM"},
      {"measurement": "GI50", "setting": "MCF7 breast", "value": 4.29, "unit": "µM"},
      {"measurement": "TGI", "setting": "MCF7 breast", "value": "> 100", "unit": "µM"},
      {"measurement": "GI50", "setting": "SK-MEL-5 melanoma", "value": 3.8, "unit": "µM"},
      {"measurement": "TGI", "setting": "SK-MEL-5 melanoma", "value": 16.5, "unit": "µM"},
      {"measurement": "GI50", "setting": "RXF 393 renal", "value": 2.42, "unit": "µM"},
      {"measurement": "TGI", "setting": "RXF 393 renal", "value": 6.41, "unit": "µM"},
      {"measurement": "GI50", "setting": "SW-620 colon", "value": 4.37, "unit": "µM"},
      {"measurement": "TGI", "setting": "SW-620 colon", "value": "> 100", "unit": "µM"},
      {"measurement": "GI50", "setting": "HCT-116 colon", "value": 3.9, "unit": "µM"},
      {"measurement": "TGI", "setting": "HCT-116 colon", "value": 34.6, "unit": "µM"},
      {"measurement": "GI50", "setting": "MALME-3M melanoma", "value": 9.19, "unit": "µM"},
      {"measurement": "TGI", "setting": "MALME-3M melanoma", "value": 58.5, "unit": "µM"},
      {"measurement": "GI50", "setting": "BT-549 breast", "value": 17.4, "unit": "µM"},
      {"measurement": "TGI", "setting": "BT-549 breast", "value": "> 100", "unit": "µM"},
      {"measurement": "GI50", "setting": "786-0 renal", "value": 11.6, "unit": "µM"},
      {"measurement": "TGI", "setting": "786-0 renal", "value": "> 100", "unit": "µM"},
      {"measurement": "GI50", "setting": "UACC-62 melanoma", "value": 12.8, "unit": "µM"},
      {"measurement": "TGI", "setting": "UACC-62 melanoma", "value": 39.7, "unit": "µM"},
      {"measurement": "GI50", "setting": "SNB-75 CNS", "value": 3.54, "unit": "µM"},
      {"measurement": "TGI", "setting": "SNB-75 CNS", "value": 29, "unit": "µM"},
      {"measurement": "GI50", "setting": "M14 melanoma", "value": 3.32, "unit": "µM"},
      {"measurement": "TGI", "setting": "M14 melanoma", "value": 14.5, "unit": "µM"},
      {"measurement": "GI50", "setting": "HCC-2998 colon", "value": 3.55, "unit": "µM"},
      {"measurement": "TGI", "setting": "HCC-2998 colon", "value": 19.3, "unit": "µM"},
      {"measurement": "GI50", "setting": "HL-60(TB) leukemia", "value": 2.6, "unit": "µM"},
      {"measurement": "TGI", "setting": "HL-60(TB) leukemia", "value": 26.8, "unit": "µM"},
      {"measurement": "GI50", "setting": "A498 renal", "value": 7.98, "unit": "µM"},
      {"measurement": "TGI", "setting": "A498 renal", "value": 44.7, "unit": "µM"},
      {"measurement": "GI50", "setting": "SK-MEL-28 melanoma", "value": 3.1, "unit": "µM"},
      {"measurement": "TGI", "setting": "SK-MEL-28 melanoma", "value": 25, "unit": "µM"},
      {"measurement": "GI50", "setting": "SN12C renal", "value": 20.5, "unit": "µM"},
      {"measurement": "TGI", "setting": "SN12C renal", "value": "> 100", "unit": "µM"},
      {"measurement": "GI50", "setting": "NCI-H23 lung", "value": 7.94, "unit": "µM"},
      {"measurement": "TGI", "setting": "NCI-H23 lung", "value": 25, "unit": "µM"},
      {"measurement": "GI50", "setting": "ACHN renal", "value": 20.4, "unit": "µM"},
      {"measurement": "TGI", "setting": "ACHN renal", "value": "> 100", "unit": "µM"},
      {"measurement": "GI50", "setting": "HCT-15 colon", "value": 5.04, "unit": "µM"},
      {"measurement": "TGI", "setting": "HCT-15 colon", "value": "> 100", "unit": "µM"},
      {"measurement": "GI50", "setting": "U251 CNS", "value": 7.92, "unit": "µM"},
      {"measurement": "TGI", "setting": "U251 CNS", "value": "> 100", "unit": "µM"},
      {"measurement": "GI50", "setting": "IGROV1 ovarian", "value": 10.4, "unit": "µM"},
      {"measurement": "TGI", "setting": "IGROV1 ovarian", "value": 91.9, "unit": "µM"},
      {"measurement": "GI50", "setting": "SF-539 CNS", "value": 12.4, "unit": "µM"},
      {"measurement": "TGI", "setting": "SF-539 CNS", "value": 98, "unit": "µM"},
      {"measurement": "GI50", "setting": "OVCAR-4 ovarian", "value": 14.8, "unit": "µM"},
      {"measurement": "TGI", "setting": "OVCAR-4 ovarian", "value": 70.6, "unit": "µM"}
    ]}
  ]
}
